According to ChEMBL document CHEMBL3243956, “Plant antitumor agents. 17. Structural requirements for antineoplastic activity in quassinoids” (1978):

Experiments:
Format in all cases: functional
[1] = tested on: P388; assay: Antileukemic activity against mouse P388 cells allografted in mouse assessed as increase in host survival at 0.5 mg/kg relative to control
[2] = tested on: P388; assay: Antileukemic activity against mouse P388 cells allografted in mouse assessed as increase in host survival at 8 mg/kg relative to control
[3] = tested on: P388; assay: Antileukemic activity against mouse P388 cells allografted in mouse assessed as increase in host survival at 4 mg/kg relative to control
[4] = tested on: P388; assay: Antileukemic activity against mouse P388 cells allografted in mouse assessed as increase in host survival at 2 mg/kg relative to control
[5] = tested on: P388; assay: Antileukemic activity against mouse P388 cells allografted in mouse assessed as increase in host survival at 1 mg/kg relative to control
[6] = tested on: P388; assay: Antileukemic activity against mouse P388 cells allografted in mouse assessed as increase in host survival at 5 mg/kg relative to control
[7] = tested on: P388; assay: Antileukemic activity against mouse P388 cells allografted in mouse assessed as increase in host survival at 10 mg/kg relative to control
[8] = tested on: P388; assay: Antileukemic activity against mouse P388 cells allografted in mouse assessed as increase in host survival at 2.5 mg/kg relative to control
[9] = tested on: P388; assay: Antileukemic activity against mouse P388 cells allografted in mouse assessed as increase in host survival at 1.25 mg/kg relative to control
[10] = tested on: P388; assay: Antileukemic activity against mouse P388 cells allografted in mouse assessed as increase in host survival at 0.25 mg/kg relative to control

Structure (SMILES) | T/C [1] | T/C [2] | T/C [3] | T/C [4] | T/C [5] | T/C [6] | T/C [7] | T/C [8] | T/C [9] | T/C [10]
CC(=O)O[C@@H]1C(=O)C=C(C)[C@@H]2[C@@H](OC(=O)C=C(C)C)[C@H]3OC(=O)C[C@H]4[C@@H](C)[C@@H](O)[C@]5(O)OC[C@]34[C@H]5[C@@]12C | 118% | 142% | 142% | 132% | 121% | – | – | – | – | –
CC(=O)OC[C@]12[C@@H]3OC(=O)C[C@H]1[C@@H](C)[C@@H](OC(C)=O)C(=O)[C@@H]2[C@@]1(C)[C@H](OC(C)=O)C(=O)C=C(C)[C@@H]1[C@H]3OC(=O)C=C(C)C | 100% | 102% | 101% | 102% | 97% | – | – | – | – | –
CC(=O)O[C@@H]1[C@H](C)[C@@H]2CC(=O)O[C@@H]3[C@H](OC(=O)C=C(C)C)[C@H]4C(C)=CC(=O)[C@@H](OC(C)=O)[C@]4(C)[C@H]4[C@@]1(O)OC[C@@]342 | – | – | – | – | – | 107% | 107% | 107% | 104% | –
CC(C)=CC(=O)O[C@@H]1[C@H]2C(C)=CC(=O)[C@H](O)[C@]2(C)[C@H]2[C@]3(O)OC[C@@]24[C@@H]1OC(=O)C[C@H]4[C@@H](C)[C@H]3O | 161% | – | – | 191% | 198% | – | – | – | – | 145%
